Assay [1] concerns the target T1, EGFR (L858R T790M C797S) (Homo sapiens, UniProt P00533, C797S/L858R/T790M).
T1 construct: purchased SignalChem E10-122VG
Description: Biochemical EGFR inhibition assay (Caliper mobility shift), EGFR LRTMCS mutant. To be noted: inhibitory activity against EGFR LRTMCS mutant; apparent IC50; read-out: Ext Enz LRTMCS. The procedure:
Reactions proceeded until between 10% to 20% total peptides were phosphorylated at room temperature (25° C.) and were terminated with 35 mM 2,2′,2″,2′″-(ethane-1,2-diyldinitrilo)tetraacetic acid (EDTA). Product was detected using the Caliper mobility shift detection method where the phosphorylated peptide (product) and substrate were electrophoretically separated and measured. Percent activity was plotted against log concentration of compound and points to generate an apparent IC50.

The subject of assay [2] is phosphorylation of EGFR (Tyr1068) in NCI-H1975 cell line that harbors the EGFR L858R T790M mutations. In words: NCI-H1975 pEGFR AlphaLISA assay. In kind it is cell-based. To be noted: 4-5 hours incubation, read-out: Ext pEGFR H1975. The procedure: Inhibitory effects of the compounds of the disclosure were evaluated in cellular assays that measure level of intracellular phosphorylation of EGFR in NCI-H1975 cell line that harbors the EGFR L858R T790M mutations (ATCC, CRL-5908) using AlphaLISA sureFire ultra p-EGFR (Tyr1068) assay kit (PerkinElmer, ALSU-PEGFR-A50K). The NCI-H1975 cells were seeded at 12.5K/well in 22 μL into 384 well opti plate (PerkinElmer, 6007299) and adhering overnight at 37 C/5% CO2. On the next day, the test compounds and DMSO control were added into H1975 cell plate followed by incubation at 37 C/5% CO2 for 4-5 hours. The cells were then spin down in the 384-well plate and lysed with 10 μL of 1×AlphaLISA lysis buffer followed by shaking at 600 rpm for 10 minutes at room temperature. After that, 5 μL of an acceptor bead mix was added to each well followed by incubation at room temperature for 1.5-2 h in dark. Then 5 μL of a donor bead mix was added to each well followed by overnight incubation at room temperature in dark. On the next day, the plate was read at a compatible plate reader to obtain pEGFR signal. Percent of pEGFR inhibition was plotted against log concentration of compounds to generate IC50 values.
A general note: Bead proximity is the source of the signal in Alpha formats.

The mark [3] stands for this setting: Homo sapiens, NCI-H1975, inhibition of phosphorylation of mutant EGFR in NCI-H1975 cells.
Setting [4] is: inhibition of phosphorylation of mutant EGFR in NCI-H1975 cells.

Each structure is given as a SMILES string. Where two headings read alike, the source gives them in different places. Where only a bound is given, the exact number is not on record here.

T1 sequence (P00533 25-1210 T790M/C797S/L858R): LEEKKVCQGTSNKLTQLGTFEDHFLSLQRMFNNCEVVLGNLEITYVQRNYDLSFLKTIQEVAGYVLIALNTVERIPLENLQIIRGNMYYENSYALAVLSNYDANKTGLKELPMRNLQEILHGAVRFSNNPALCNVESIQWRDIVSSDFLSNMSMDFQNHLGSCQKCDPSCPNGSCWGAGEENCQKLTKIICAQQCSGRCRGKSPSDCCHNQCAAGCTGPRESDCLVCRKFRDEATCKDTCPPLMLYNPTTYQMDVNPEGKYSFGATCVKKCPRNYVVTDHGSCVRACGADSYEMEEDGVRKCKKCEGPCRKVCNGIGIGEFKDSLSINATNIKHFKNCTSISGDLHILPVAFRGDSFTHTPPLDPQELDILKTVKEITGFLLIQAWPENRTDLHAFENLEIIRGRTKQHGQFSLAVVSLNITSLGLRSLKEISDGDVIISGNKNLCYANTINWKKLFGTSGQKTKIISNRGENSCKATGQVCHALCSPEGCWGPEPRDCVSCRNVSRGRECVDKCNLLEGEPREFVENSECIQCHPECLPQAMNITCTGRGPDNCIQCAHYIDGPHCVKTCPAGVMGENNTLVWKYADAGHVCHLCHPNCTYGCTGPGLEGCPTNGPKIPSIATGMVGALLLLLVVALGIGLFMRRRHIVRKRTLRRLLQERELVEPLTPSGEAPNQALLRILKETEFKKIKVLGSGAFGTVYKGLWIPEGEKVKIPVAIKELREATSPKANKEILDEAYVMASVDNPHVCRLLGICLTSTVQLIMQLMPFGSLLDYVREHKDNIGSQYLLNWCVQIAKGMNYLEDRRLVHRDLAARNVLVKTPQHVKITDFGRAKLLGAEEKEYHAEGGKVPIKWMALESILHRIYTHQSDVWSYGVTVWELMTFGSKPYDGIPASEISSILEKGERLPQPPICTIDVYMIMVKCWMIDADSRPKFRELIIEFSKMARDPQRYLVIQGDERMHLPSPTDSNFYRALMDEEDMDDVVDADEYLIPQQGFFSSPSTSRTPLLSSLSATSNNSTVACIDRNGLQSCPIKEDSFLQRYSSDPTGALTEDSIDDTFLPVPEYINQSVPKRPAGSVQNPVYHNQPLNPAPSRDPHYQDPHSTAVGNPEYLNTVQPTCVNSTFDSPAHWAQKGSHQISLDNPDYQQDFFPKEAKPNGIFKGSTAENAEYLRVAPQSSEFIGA

As for `CO[C@@H]1[C@H](F)CN(c2nccc(Nc3cc4c(C(C)C)ccc(N5C[C@H](CS(C)(=O)=O)[C@H]5C)c4cn3)n2)C[C@@H]1O` (racemic) [Compound 198, (3R,4R,5S)-5-fluoro-1-(4-((5-isopropyl-8-((2R,3S)-2-methyl-3-((methylsulfonyl)methyl)azetidin-1-yl)isoquinolin-3-yl)amino)pyrimidin-2-yl)-4-methoxypiperidin-3-ol and (3S,4S,5R)-5-fluoro-1-(4-((5-isopropyl-8-((2R,3S)-2-methyl-3-((methylsulfonyl)methyl)azetidin-1-yl)isoquinolin-3-yl)amino)pyrimidin-2-yl)-4-methoxypiperidin-3-ol], the figures for the IC50 in assay [1] and in assay [2] (setting [3]) were 15.1 to 20 nM and not above 10 nM, respectively.
`CO[C@H]1CN(c2nccc(Nc3cc4c(C(C)C)ccc(N5C[C@H](CS(C)(=O)=O)[C@H]5C)c4cn3)n2)C[C@@H](F)[C@H]1O` (racemic) [Compound 200, (3R,4S,5S)-3-fluoro-1-(4-((5-isopropyl-8-((2R,3S)-2-methyl-3-((methylsulfonyl)methyl)azetidin-1-yl)isoquinolin-3-yl)amino)pyrimidin-2-yl)-5-methoxypiperidin-4-ol and (3S,4R,5R)-3-fluoro-1-(4-((5-isopropyl-8-((2R,3S)-2-methyl-3-((methylsulfonyl)methyl)azetidin-1-yl)isoquinolin-3-yl)amino)pyrimidin-2-yl)-5-methoxypiperidin-4-ol]: the results for the IC50 in assay [1] and in assay [2] (setting [3]) were 15.1 to 20 nM and not above 10 nM, respectively.
As to `COCCO[C@H]1CCN(c2nccc(Nc3cc4c(C(C)C)ccc(N5CC(CS(C)(=O)=O)C5)c4cn3)n2)C[C@H]1O` (racemic) [Compound 226, (3R,4S)-1-[4-[[5-isopropyl-8-[3-(methylsulfonylmethyl)azetidin-1-yl]-3-isoquinolyl]amino]pyrimidin-2-yl]-4-(2-methoxyethoxy)piperidin-3-ol and (3S,4R)-1-[4-[[5-isopropyl-8-[3-(methylsulfonylmethyl)azetidin-1-yl]-3-isoquinolyl]amino]pyrimidin-2-yl]-4-(2-methoxyethoxy)piperidin-3-ol], the IC50 in assay [1] fell in the range of 30.1 to 100 nM; in assay [2] (setting [3]), 30.1 to 50 nM.
On the same counts, the results for `COCCO[C@@H]1CCN(c2nccc(Nc3cc4c(C(C)C)ccc(N5CC(CS(C)(=O)=O)C5)c4cn3)n2)C[C@H]1O` (racemic) [Compound 227, (3S,4S)-1-[4-[[5-isopropyl-8-[3-(methylsulfonylmethyl)azetidin-1-yl]-3-isoquinolyl]amino]pyrimidin-2-yl]-4-(2-methoxyethoxy)piperidin-3-ol or (3R,4R)-1-[4-[[5-isopropyl-8-[3-(methylsulfonylmethyl)azetidin-1-yl]-3-isoquinolyl]amino]pyrimidin-2-yl]-4-(2-methoxyethoxy)piperidin-3-ol] are 20.1 to 30 nM and 30.1 to 50 nM.
In the case of `CC1(C)CN(c2nccc(Nc3cc4ccnc(N5CC(CS(C)(=O)=O)C5)c4cn3)n2)C[C@@H](F)[C@H]1O` (single isomer, unassigned) [Compound 6, (4S,5R)-5-fluoro-1-[4-({8-[3-(methanesulfonylmethyl)azetidin-1-yl]-2,7-naphthyridin-3-yl}amino)pyrimidin-2-yl]-3,3-dimethylpiperidin-4-ol or (4R,5S)-5-fluoro-1-[4-({8-[3-(methanesulfonylmethyl)azetidin-1-yl]-2,7-naphthyridin-3-yl}amino)pyrimidin-2-yl]-3,3-dimethylpiperidin-4-ol], the IC50 was not above 15 nM in assay [1] and 20.1 to 30 nM in assay [2] (setting [3]).
Take `CC(C)c1cnc(N2CC(CS(C)(=O)=O)C2)c2cnc(Nc3ccnc(N4C[C@H](F)[C@@H](F)C4)n3)cc12` (single isomer, unassigned) [Compound 8, N-{2-[(3S,4S)-3,4-difluoropyrrolidin-1-yl]pyrimidin-4-yl}-8-[3-(methanesulfonylmethyl)azetidin-1-yl]-5-(propan-2-yl)-2,7-naphthyridin-3-amine or N-{2-[(3R,4R)-3,4-difluoropyrrolidin-1-yl]pyrimidin-4-yl}-8-[3-(methanesulfonylmethyl)azetidin-1-yl]-5-(propan-2-yl)-2,7-naphthyridin-3-amine]: the IC50 was not above 15 nM in assay [1] and 30.1 to 50 nM in assay [2] (setting [4]).
`CC(C)c1cnc(N2CC(CS(C)(=O)=O)C2)c2cnc(Nc3ccnc(N4C[C@H](F)[C@@H](F)C4)n3)cc12` (single isomer, unassigned) [Compound 9, N-{2-[(3R,4R)-3,4-difluoropyrrolidin-1-yl]pyrimidin-4-yl}-8-[3-(methanesulfonylmethyl)azetidin-1-yl]-5-(propan-2-yl)-2,7-naphthyridin-3-amine or N-{2-[(3S,4S)-3,4-difluoropyrrolidin-1-yl]pyrimidin-4-yl}-8-[3-(methanesulfonylmethyl)azetidin-1-yl]-5-(propan-2-yl)-2,7-naphthyridin-3-amine]: the IC50 in assay [1] is not above 15 nM; in assay [2] (setting [4]), 10.1 to 20 nM.
For the molecule `CC(C)c1ccc(N2CC(CS(C)(=O)=O)C2)c2cnc(Nc3ccnc(N4C[C@H]5C[C@@H]4C[C@H]5O)n3)cc12` (single isomer, unassigned) [Compound 11, (1R,4R,5R)-2-[4-({8-[3-(methanesulfonylmethyl)azetidin-1-yl]-5-(propan-2-yl)isoquinolin-3-yl}amino)pyrimidin-2-yl]-2-azabicyclo[2.2.1]heptan-5-ol or (1S,4S,5S)-2-[4-({8-[3-(methanesulfonylmethyl)azetidin-1-yl]-5-(propan-2-yl)isoquinolin-3-yl}amino)pyrimidin-2-yl]-2-azabicyclo[2.2.1]heptan-5-ol], the IC50 is not above 15 nM in assay [1] and 30.1 to 50 nM in assay [2] (setting [3]).
In the case of `COC1CCN(c2nccc(Nc3cc4c(C(C)C)ccc(N5CC(CS(C)(=N)=O)C5)c4cn3)n2)CC1` (single isomer, unassigned) [Compound 15, (S)-imino((1-(5-isopropyl-3-((2-(4-methoxypiperidin-1-yl)pyrimidin-4-yl)amino)isoquinolin-8-yl)azetidin-3-yl)methyl)(methyl)-λ^6-sulfanone or (R)-imino((1-(5-isopropyl-3-((2-(4-methoxypiperidin-1-yl)pyrimidin-4-yl)amino)isoquinolin-8-yl)azetidin-3-yl)methyl)(methyl)-λ^6-sulfanone], the values for the IC50 in assay [1] and in assay [2] (setting [3]) were not above 15 nM and 30.1 to 50 nM, respectively.
Take `CC(C)c1ccc(N2CC(CS(C)(=O)=O)C2)c2cnc(Nc3ccnc(N4CC[C@H](O)[C@@H](C)C4)n3)cc12` (single isomer, unassigned) [Compound 18, (3S,4S)-1-[4-({8-[3-(methanesulfonylmethyl)azetidin-1-yl]-5-(propan-2-yl)isoquinolin-3-yl}amino)pyrimidin-2-yl]-3-methylpiperidin-4-ol or (3R,4R)-1-[4-({8-[3-(methanesulfonylmethyl)azetidin-1-yl]-5-(propan-2-yl)isoquinolin-3-yl}amino)pyrimidin-2-yl]-3-methylpiperidin-4-ol]: the results for the IC50 in assay [1] and in assay [2] (setting [3]) were not above 15 nM and not above 10 nM, respectively.

For the origin of these results see patent US12172983B2, “EGFR inhibitors” (Blueprint Medicines Corporation, priority 2019, dated 2024).
